The first assay addresses T1, human APJ receptor (Homo sapiens, UniProt P35414).
T1 construct: expressed in transfected cells
T1 sequence (P35414 1-380): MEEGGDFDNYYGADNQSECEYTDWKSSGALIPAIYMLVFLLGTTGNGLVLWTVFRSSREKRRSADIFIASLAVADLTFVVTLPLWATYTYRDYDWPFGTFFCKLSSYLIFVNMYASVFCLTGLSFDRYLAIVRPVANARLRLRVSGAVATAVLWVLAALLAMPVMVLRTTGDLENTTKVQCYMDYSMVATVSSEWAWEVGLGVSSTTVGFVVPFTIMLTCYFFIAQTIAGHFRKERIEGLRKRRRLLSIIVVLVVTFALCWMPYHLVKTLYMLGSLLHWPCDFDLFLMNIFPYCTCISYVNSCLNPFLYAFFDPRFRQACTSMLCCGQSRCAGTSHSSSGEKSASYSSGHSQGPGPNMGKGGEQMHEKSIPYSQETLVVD
Kind of assay: Intracellular cAMP accumulation assay (APJ hcAMP, HTRF). It is filed as cell-based. The settings on record: HEK293 cells stably expressing human APJ receptor; inhibition of forskolin-mediated cAMP production; stated at end of example; read-out: Human APJ cAMP Potency Range. The gist of the method: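 HEK293 cells stably expressing the receptor (5,000/well) treated with compound plus […] and 2 μM forskolin for 30 min at room temperature; cAMP by HTRF against a cAMP standard curve. EC50 from variable-slope sigmoidal fit; Ymax as % of (Pyr1)apelin-13 inhibition.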
In general terms: Changes in cAMP serve as a functional read-out for many G protein-coupled receptors.
On to `CCCCc1nc(O)c(-c2nnc(Cc3noc4ccccc34)o2)c(=O)n1[C@@H](CC)c1ccccc1` [Example 74, (S)-5-(5-(Benzo[d]isoxazol-3-ylmethyl)-1,3,4-oxadiazol-2-yl)-2-butyl-6-hydroxy-3-(1-phenylpropyl)pyrimidin-4(3H)-one], for which the EC50 was 0.01 to 10 nM.

Still in this assay, the particulars now being: Table 1; HEK293 cells stably expressing human APJ receptor; read-out: hAPJ cAMP EC50 Potency range.
In the case of `COc1cccc(OC)c1-n1c(C2CCCC2)nc(=O)c(-c2nnc(Cc3ccc(C)nc3)o2)c1O` [Example 68, 2-cyclopentyl-1-(2,6-dimethoxyphenyl)-6-hydroxy-5-{5-[(6-methylpyridin-3-yl)methyl]-1,3,4-oxadiazol-2-yl}-1,4-dihydropyrimidin-4-one], the EC50 lay in the range of 0.01 to 10 nM. On the same count and under the same terms, the result for `COc1cccc(OC)c1-n1c(C2CCCC2)nc(=O)c(-c2nnc(Cc3ncc(Cl)cc3F)o2)c1O` [Example 69, 5-{5-[(5-chloro-3-fluoropyridin-2-yl)methyl]-1,3,4-oxadiazol-2-yl}-2 cyclopentyl-1-(2,6-dimethoxyphenyl)-6-hydroxy-1,4-dihydropyrimidin-4-one] reads 0.01 to 10 nM; that for `COc1cccc(OC)c1-n1c(C2CCC2)nc(=O)c(-c2nnc(Cc3ccc(Cl)cn3)o2)c1O` [Example 70, 5-{5-[(5-chloropyridin-2-yl)methyl]-1,3,4-oxadiazol-2-yl}-2-cyclobutyl-1-(2,6-dimethoxyphenyl)-6-hydroxy-1,4-dihydropyrimidin-4-one], 0.01 to 10 nM; that for `COc1cccc(OC)c1-n1c(C2CCC2)nc(=O)c(-c2nnc(Cc3ncc(Cl)cc3F)o2)c1O` [Example 71, 5-{5-[(5-chloro-3-fluoropyridin-2-yl)methyl]-1,3,4-oxadiazol-2-yl}-2-cyclobutyl-1-(2,6-dimethoxyphenyl)-6-hydroxy-1,4-dihydropyrimidin-4-one], 0.01 to 10 nM. For the molecule `COc1cccc(OC)c1-n1c(C2CCC2)nc(=O)c(-c2nnc(CN3CCCC3=O)o2)c1O` [Example 72, 2-cyclobutyl-1-(2,6-dimethoxyphenyl)-6-hydroxy-5-{5-[(2-oxopyrrolidin-1-yl)methyl]-1,3,4-oxadiazol-2-yl}-1,4-dihydropyrimidin-4-one], the EC50 is 0.01 to 10 nM. In the case of `COc1cccc(OC)c1-n1c(C2CCC2)nc(=O)c(-c2nnc(Cc3csc(C)n3)o2)c1O` [Example 73, 2-cyclobutyl-1-(2,6-dimethoxyphenyl)-6-hydroxy-5-{5-[(2-methyl-1,3-thiazol-4-yl)methyl]-1,3,4-oxadiazol-2-yl}-1,4-dihydropyrimidin-4-one], the EC50 lay within 0.01 to 10 nM.

The same assay, now with this note: Table 2; HEK293 cells stably expressing human APJ receptor; read-out: hAPJ cAMP EC50 Potency range.
Consider `CCCCc1nc(O)c(-c2nnc(Cc3noc4ccccc34)o2)c(=O)n1[C@@H](C)c1ccccc1` [Example 75, 5-{5-[(1,2-benzoxazol-3-yl)methyl]-1,3,4-oxadiazol-2-yl}-2-butyl-6-hydroxy-3-[(1S)-1-phenylethyl]-3,4-dihydropyrimidin-4-one], for which the EC50 lay within 10 to 100 nM.

As to `CCCCc1nc(O)c(-c2nnc(Cc3csc(C)n3)o2)c(=O)n1[C@@H](C)c1ccccc1` [Example 76, 2-butyl-6-hydroxy-5-{5-[(2-methyl-1,3-thiazol-4-yl)methyl]-1,3,4-oxadiazol-2-yl}-3-[(1S)-1-phenylethyl]-3,4-dihydropyrimidin-4-one], the EC50 was in the range of 0.01 to 10 nM.

Take `CCCCc1nc(O)c(-c2nnc(Cc3ccc(Cl)cc3)o2)c(=O)n1[C@@H](C)C1CC1` [Example 77, 2-butyl-5-{5-[(4-chlorophenyl)methyl]-1,3,4-oxadiazol-2-yl}-3-[(1S)-1-cyclopropylethyl]-6-hydroxy-3,4-dihydropyrimidin-4-one]: the EC50 is 100 to 300 nM. Still for that read-out and setting: with `CCCCc1nc(O)c(-c2nnc(Cc3noc4ccccc34)o2)c(=O)n1[C@H](C)c1ccccc1OC` [Example 78, 5-{5-[(1,2-benzoxazol-3-yl)methyl]-1,3,4-oxadiazol-2-yl}-2-butyl-6-hydroxy-3-[(1R)-1-(2-methoxyphenyl)ethyl]-3,4-dihydropyrimidin-4-one] the figure was 10 to 100 nM. `CCCCc1nc(O)c(-c2nnc(Cc3csc(C)n3)o2)c(=O)n1[C@H](C)c1ccccc1OC` [Example 79, 2-butyl-6-hydroxy-3-[(1R)-1-(2-methoxyphenyl)ethyl]-5-{5-[(2-methyl-1,3-thiazol-4-yl)methyl]-1,3,4-oxadiazol-2-yl}-3,4-dihydropyrimidin-4-one]: the EC50 fell in the range of 0.01 to 10 nM.

For `CCCCc1nc(O)c(-c2nnc(Cc3csc(C)n3)o2)c(=O)n1[C@H](C)C1CC1` [Example 80, 2-butyl-3-[(1R)-1-cyclopropylethyl]-6-hydroxy-5-{5-[(2-methyl-1,3-thiazol-4-yl)methyl]-1,3,4-oxadiazol-2-yl}-3,4-dihydropyrimidin-4-one], the EC50 lay in the range of 100 to 300 nM. On the same count and under the same terms, the result for `CCCCc1nc(O)c(-c2nnc(Cc3ccc(Cl)cc3)o2)c(=O)n1[C@H](C)c1ccccc1OC` [Example 81, 2-butyl-5-{5-[(4-chlorophenyl)methyl]-1,3,4-oxadiazol-2-yl}-6-hydroxy-3-[(1R)-1-(2-methoxyphenyl)ethyl]-3,4-dihydropyrimidin-4-one] reads 10 to 100 nM; that for `CCCCc1nc(O)c(-c2nnc(Cc3csc(C)n3)o2)c(=O)n1[C@H](C)c1ccccc1` [Example 82, 2-butyl-6-hydroxy-5-{5-[(2-methyl-1,3-thiazol-4-yl)methyl]-1,3,4-oxadiazol-2-yl}-3-[(1R)-1-phenylethyl]-3,4-dihydropyrimidin-4-one], 10 to 100 nM. On the same count and under the same terms, with `CCCCc1nc(O)c(-c2nnc(Cc3ccc(Cl)cc3)o2)c(=O)n1[C@H](C)c1ccccc1` [Example 83, 2-butyl-5-{5-[(4-chlorophenyl)methyl]-1,3,4-oxadiazol-2-yl}-6-hydroxy-3-[(1R)-1-phenylethyl]-3,4-dihydropyrimidin-4-one] the figure was 10 to 100 nM. As to `CCCCc1nc(O)c(-c2nnc(Cc3ccc(Cl)cc3)o2)c(=O)n1[C@@H](CC)c1ccccc1` [Example 84, 2-butyl-5-{5-[(4-chlorophenyl)methyl]-1,3,4-oxadiazol-2-yl}-6-hydroxy-3-[(1S)-1-phenylpropyl]-3,4-dihydropyrimidin-4-one], the EC50 lay within 10 to 100 nM. On the same count and under the same terms, the result for `CCCCc1nc(O)c(-c2nnc(Cc3csc(C)n3)o2)c(=O)n1[C@@H](CC)c1ccccc1` [Example 85, 2-butyl-6-hydroxy-5-{5-[(2-methyl-1,3-thiazol-4-yl)methyl]-1,3,4-oxadiazol-2-yl}-3-[(1S)-1-phenylpropyl]-3,4-dihydropyrimidin-4-one] reads 0.01 to 10 nM; that for `CCCCc1nc(O)c(-c2nnc(Cc3noc4ccccc34)o2)c(=O)n1[C@H](C)c1ccccc1` [Example 86, 5-{5-[(1,2-benzoxazol-3-yl)methyl]-1,3,4-oxadiazol-2-yl}-2-butyl-6-hydroxy-3-[(1R)-1-phenylethyl]-3,4-dihydropyrimidin-4-one], 0.01 to 10 nM; that for `CCCCc1nc(O)c(-c2nnc(Cc3noc4ccccc34)o2)c(=O)n1[C@H](CC)c1ccccc1` [Example 87, 5-{5-[(1,2-benzoxazol-3-yl)methyl]-1,3,4-oxadiazol-2-yl}-2-butyl-6-hydroxy-3-[(1R)-1-phenylpropyl]-3,4-dihydropyrimidin-4-one], 0.01 to 10 nM.

On to `CCCCc1nc(O)c(-c2nnc(Cc3csc(C)n3)o2)c(=O)n1[C@H](CC)c1ccccc1` [Example 88], for which the EC50 fell in the range of 0.01 to 10 nM. `CCCCc1nc(O)c(-c2nnc(Cc3ccc(Cl)cc3)o2)c(=O)n1[C@H](CC)c1ccccc1` [Example 89, 2-butyl-5-{5-[(4-chlorophenyl)methyl]-1,3,4-oxadiazol-2-yl}-6-hydroxy-3-[(1R)-1-phenylpropyl]-3,4-dihydropyrimidin-4-one]: the EC50 lay in the range of 10 to 100 nM. With `CCCCc1nc(O)c(-c2nnc(Cc3noc4ccccc34)o2)c(=O)n1[C@H](COC)c1ccccc1` [Example 90, 5-{5-[(1,2-benzoxazol-3-yl)methyl]-1,3,4-oxadiazol-2-yl}-2-butyl-6-hydroxy-3-[(1S)-2-methoxy-1-phenylethyl]-3,4-dihydropyrimidin-4-one], the EC50 lay within 100 to 300 nM.

For the molecule `CCCCc1nc(O)c(-c2nnc(Cc3noc4ccccc34)o2)c(=O)n1[C@@H](COC)c1ccccc1` [Example 91, 5-{5-[(1,2-benzoxazol-3-yl)methyl]-1,3,4-oxadiazol-2-yl}-2-butyl-6-hydroxy-3-[(1R)-2-methoxy-1-phenylethyl]-3,4-dihydropyrimidin-4-one], the EC50 lay in the range of 10 to 100 nM.

As to `CCCCc1nc(O)c(-c2nnc(Cc3noc4ccccc34)o2)c(=O)n1[C@H]1CCCc2ccccc21` [Example 92, 5-{5-[(1,2-benzoxazol-3-yl)methyl]-1,3,4-oxadiazol-2-yl}-2-butyl-6-hydroxy-3-[(1S)-1,2,3,4-tetrahydronaphthalen-1-yl]-3,4-dihydropyrimidin-4-one], the EC50 fell in the range of 100 to 300 nM.

With `CCCCc1nc(O)c(-c2nnc(Cc3csc(C)n3)o2)c(=O)n1[C@H](COC)c1ccccc1` [Example 93, 2-butyl-6-hydroxy-3-[(1S)-2-methoxy-1-phenylethyl]-5-{5-[(2-methyl-1,3-thiazol-4-yl)methyl]-1,3,4-oxadiazol-2-yl}-3,4-dihydropyrimidin-4-one], the EC50 lay in the range of 100 to 300 nM.

Turning to `CCCCc1nc(O)c(-c2nnc(Cc3csc(C)n3)o2)c(=O)n1[C@@H](COC)c1ccccc1` [Example 94, 2-butyl-6-hydroxy-3-[(1R)-2-methoxy-1-phenylethyl]-5-{5-[(2-methyl-1,3-thiazol-4-yl)methyl]-1,3,4-oxadiazol-2-yl}-3,4-dihydropyrimidin-4-one], the EC50 lay within 0.01 to 10 nM.

The values are drawn from patent US10669261B2, “Heteroarylhydroxypyrimidinones as agonists of the APJ receptor” (BRISTOL-MYERS SQUIBB COMPANY, priority 2015, dated 2020).
